ChEMBL document CHEMBL1201862, “PubChem BioAssay data set” (2004)
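A five-concentration, 48-hour dose response in 96-well plates underlies each endpoint, interpolated linearly between surrounding concentrations. The concentration for 50% growth inhibition is given as GI50.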 Calls of active or inactive are those of the source. Rule as the data show it: active = GI50 up to about 1.1 µM and inactive = higher.

What was measured:
Experiment in all cases: inhibition of tumour cell growth, NCI panel, 48 h
786-0 = system: 786-0
A498 = system: A498
A549 = system: A549
ACHN = system: ACHN
BT-549 = system: BT-549
CAKI-1 = system: CAKI-1
CCRF-CEM = system: CCRF-CEM
COLO 205 = system: COLO 205
DU-145 = system: DU-145
EKVX = system: EKVX
HCT-116 = system: HCT-116
HCT-15 = system: HCT-15
HL-60 = system: HL-60
HOP-62 = system: HOP-62
HOP-92 = system: HOP-92
HT-29 = system: HT-29
Hs-578T = system: Hs-578T
IGROV-1 = system: IGROV-1
K562 = system: K562
KM12 = system: KM12
LOX IMVI = system: LOX IMVI
M14 = system: M14
MCF7 = system: MCF7
MDA-MB-231 = system: MDA-MB-231
MDA-MB-435 = system: MDA-MB-435
MDA-N = system: MDA-N
MOLT-4 = system: MOLT-4
Malme-3M = system: Malme-3M
NCI-H226 = system: NCI-H226
NCI-H23 = system: NCI-H23
NCI-H460 = system: NCI-H460
NCI-H522 = system: NCI-H522
NCI/ADR-RES = system: NCI/ADR-RES
OVCAR-3 = system: OVCAR-3
OVCAR-4 = system: OVCAR-4
OVCAR-5 = system: OVCAR-5
OVCAR-8 = system: OVCAR-8
PC-3 = system: PC-3
RPMI-8226 = system: RPMI-8226
RXF 393 = system: RXF 393
SF-268 = system: SF-268
SF-295 = system: SF-295
SF-539 = system: SF-539
SK-MEL-28 = system: SK-MEL-28
SK-MEL-2 = system: SK-MEL-2
SK-MEL-5 = system: SK-MEL-5
SK-OV-3 = system: SK-OV-3
SN12C = system: SN12C
SNB-19 = system: SNB-19
SNB-75 = system: SNB-75
SR = system: SR
SW-620 = system: SW-620
T47D = system: T47D
TK-10 = system: TK-10
U-251 = system: U-251
UACC-257 = system: UACC-257
UO-31 = system: UO-31
HCC 2998 = system: HCC 2998
UACC-62 = system: UACC-62

Oc1nc2nnc(COc3ccc(Cl)cc3Cl)n2nc1Cc1ccccc1
GI50 (786-0): 20.8 µM (inactive) | GI50 (A498): 31.3 µM (inactive) | GI50 (A549): 94.2 µM (inactive) | GI50 (ACHN): 41.8 µM (inactive) | GI50 (BT-549): > 100 µM (inactive) | GI50 (CAKI-1): > 100 µM (inactive) | GI50 (CCRF-CEM): 33 µM (inactive) | GI50 (COLO 205): > 100 µM (inactive) | GI50 (DU-145): > 100 µM (inactive) | GI50 (EKVX): > 100 µM (inactive) | GI50 (HCT-116): 52.5 µM (inactive) | GI50 (HCT-15): > 100 µM | GI50 (HL-60): 49.2 µM (inactive) | GI50 (HOP-62): 47.2 µM (inactive) | GI50 (HOP-92): 32.7 µM (inactive) | GI50 (HT-29): > 100 µM (inactive) | GI50 (Hs-578T): 51.6 µM (inactive) | GI50 (IGROV-1): 24.2 µM (inactive) | GI50 (K562): > 100 µM (inactive) | GI50 (KM12): > 100 µM (inactive) | GI50 (LOX IMVI): > 100 µM (inactive) | GI50 (M14): > 100 µM (inactive) | GI50 (MCF7): > 100 µM (inactive) | GI50 (MDA-MB-231): 43.2 µM (inactive) | GI50 (MDA-MB-435): > 100 µM (inactive) | GI50 (MDA-N): > 100 µM (inactive) | GI50 (MOLT-4): > 100 µM (inactive) | GI50 (Malme-3M): > 100 µM (inactive) | GI50 (NCI-H226): 25.1 µM (inactive) | GI50 (NCI-H23): 43 µM (inactive) | GI50 (NCI-H460): 84.5 µM (inactive) | GI50 (NCI-H522): > 100 µM (inactive) | GI50 (NCI/ADR-RES): 43.1 µM (inactive) | GI50 (OVCAR-3): 27.5 µM (inactive) | GI50 (OVCAR-4): 47.8 µM (inactive) | GI50 (OVCAR-5): > 100 µM (inactive) | GI50 (OVCAR-8): 26.1 µM (inactive) | GI50 (PC-3): > 100 µM (inactive) | GI50 (RPMI-8226): > 100 µM (inactive) | GI50 (RXF 393): 21.5 µM (inactive) | GI50 (SF-268): 63.4 µM (inactive) | GI50 (SF-295): 32.3 µM (inactive) | GI50 (SF-539): 20.1 µM (inactive) | GI50 (SK-MEL-28): > 100 µM (inactive) | GI50 (SK-MEL-2): > 100 µM (inactive) | GI50 (SK-MEL-5): > 100 µM (inactive) | GI50 (SK-OV-3): 27.4 µM (inactive) | GI50 (SN12C): 57.1 µM (inactive) | GI50 (SNB-19): 31.6 µM (inactive) | GI50 (SNB-75): 16 µM (inactive) | GI50 (SR): 36.7 µM (inactive) | GI50 (SW-620): > 100 µM (inactive) | GI50 (T47D): 37.8 µM (inactive) | GI50 (TK-10): 34.6 µM (inactive) | GI50 (U-251): 23.8 µM (inactive) | GI50 (UACC-257): > 100 µM (inactive) | GI50 (UO-31): 24.2 µM (inactive)

CCOC(=O)c1cc([N+](=O)[O-])c(Sc2ncnc3nc[nH]c23)c([N+](=O)[O-])c1
GI50 (786-0): 2.79 µM (inactive) | GI50 (A498): 12.7 µM (inactive) | GI50 (A549): 20.5 µM (inactive) | GI50 (ACHN): 6.85 µM (inactive) | GI50 (BT-549): 6.32 µM (inactive) | GI50 (CAKI-1): 2.37 µM (inactive) | GI50 (CCRF-CEM): 1.27 µM (inactive) | GI50 (COLO 205): 1.66 µM (inactive) | GI50 (DU-145): 10.2 µM (inactive) | GI50 (EKVX): 4.92 µM (inactive) | GI50 (HCC 2998): 17.8 µM (inactive) | GI50 (HCT-116): 1.87 µM (inactive) | GI50 (HCT-15): 2.48 µM | GI50 (HL-60): 4.19 µM (inactive) | GI50 (HOP-62): 11.1 µM (inactive) | GI50 (HOP-92): 1.03 µM (active) | GI50 (HT-29): 3.06 µM (inactive) | GI50 (Hs-578T): 9.64 µM (inactive) | GI50 (IGROV-1): 1.26 µM (inactive) | GI50 (K562): 0.53 µM (active) | GI50 (KM12): 9.2 µM (inactive) | GI50 (LOX IMVI): 0.378 µM (active) | GI50 (M14): 2.31 µM (inactive) | GI50 (MCF7): 1.24 µM (inactive) | GI50 (MDA-MB-231): 4.92 µM (inactive) | GI50 (MDA-MB-435): 2.47 µM (inactive) | GI50 (MDA-N): 2.75 µM (inactive) | GI50 (MOLT-4): 1.87 µM (inactive) | GI50 (Malme-3M): 3.15 µM (inactive) | GI50 (NCI-H226): 5.61 µM (inactive) | GI50 (NCI-H23): 7.13 µM (inactive) | GI50 (NCI-H460): 7.5 µM (inactive) | GI50 (NCI-H522): 0.643 µM (active) | GI50 (NCI/ADR-RES): 2.82 µM (inactive) | GI50 (OVCAR-3): 1.39 µM (inactive) | GI50 (OVCAR-5): 1.66 µM (inactive) | GI50 (OVCAR-8): 4.74 µM (inactive) | GI50 (PC-3): 9.82 µM (inactive) | GI50 (RPMI-8226): 0.865 µM (active) | GI50 (RXF 393): 9.59 µM (inactive) | GI50 (SF-268): 4.5 µM (inactive) | GI50 (SF-295): 3.36 µM (inactive) | GI50 (SF-539): 3.09 µM (inactive) | GI50 (SK-MEL-28): 14.3 µM (inactive) | GI50 (SK-MEL-2): 8.89 µM (inactive) | GI50 (SK-MEL-5): 10.7 µM (inactive) | GI50 (SK-OV-3): 0.308 µM (active) | GI50 (SN12C): 14.1 µM (inactive) | GI50 (SNB-19): 17.1 µM (inactive) | GI50 (SR): 3.24 µM (inactive) | GI50 (SW-620): 2.18 µM (inactive) | GI50 (T47D): 2.96 µM (inactive) | GI50 (TK-10): 1.09 µM (active) | GI50 (U-251): 6.82 µM (inactive) | GI50 (UACC-257): 7.28 µM (inactive) | GI50 (UACC-62): 2.46 µM (inactive) | GI50 (UO-31): 2.62 µM (inactive)

CCN(CC)C(=O)N[C@@H](CC(C)C)C(=O)NC
GI50 (786-0): > 100 µM (inactive) | GI50 (A498): > 100 µM (inactive) | GI50 (A549): > 100 µM (inactive) | GI50 (ACHN): > 100 µM (inactive) | GI50 (BT-549): > 100 µM (inactive) | GI50 (CAKI-1): > 100 µM (inactive) | GI50 (CCRF-CEM): > 100 µM (inactive) | GI50 (COLO 205): > 100 µM (inactive) | GI50 (DU-145): > 100 µM (inactive) | GI50 (EKVX): > 100 µM (inactive) | GI50 (HCC 2998): > 100 µM (inactive) | GI50 (HCT-116): > 100 µM (inactive) | GI50 (HCT-15): > 100 µM | GI50 (HL-60): 43.3 µM (inactive) | GI50 (HOP-62): > 100 µM (inactive) | GI50 (HT-29): > 100 µM (inactive) | GI50 (Hs-578T): > 100 µM (inactive) | GI50 (IGROV-1): > 100 µM (inactive) | GI50 (K562): > 100 µM (inactive) | GI50 (KM12): > 100 µM (inactive) | GI50 (LOX IMVI): > 100 µM (inactive) | GI50 (M14): > 100 µM (inactive) | GI50 (MCF7): 49.4 µM (inactive) | GI50 (MDA-MB-231): > 100 µM (inactive) | GI50 (MDA-MB-435): > 100 µM (inactive) | GI50 (MDA-N): > 100 µM (inactive) | GI50 (MOLT-4): > 100 µM (inactive) | GI50 (Malme-3M): > 100 µM (inactive) | GI50 (NCI-H23): > 100 µM (inactive) | GI50 (NCI-H460): > 100 µM (inactive) | GI50 (NCI-H522): > 100 µM (inactive) | GI50 (NCI/ADR-RES): > 100 µM (inactive) | GI50 (OVCAR-3): > 100 µM (inactive) | GI50 (OVCAR-4): > 100 µM (inactive) | GI50 (OVCAR-5): > 100 µM (inactive) | GI50 (OVCAR-8): > 100 µM (inactive) | GI50 (PC-3): 73.6 µM (inactive) | GI50 (RPMI-8226): > 100 µM (inactive) | GI50 (RXF 393): > 100 µM (inactive) | GI50 (SF-268): > 100 µM (inactive) | GI50 (SF-295): > 100 µM (inactive) | GI50 (SK-MEL-28): > 100 µM (inactive) | GI50 (SK-MEL-2): > 100 µM (inactive) | GI50 (SK-MEL-5): > 100 µM (inactive) | GI50 (SK-OV-3): > 100 µM (inactive) | GI50 (SN12C): > 100 µM (inactive) | GI50 (SNB-19): > 100 µM (inactive) | GI50 (SNB-75): > 100 µM (inactive) | GI50 (SR): > 100 µM (inactive) | GI50 (SW-620): > 100 µM (inactive) | GI50 (T47D): > 100 µM (inactive) | GI50 (U-251): > 100 µM (inactive) | GI50 (UACC-62): > 100 µM (inactive) | GI50 (UO-31): > 100 µM (inactive)
